In data set [1] the target is T1, TUT7 (Homo sapiens, UniProt Q5VYS8).
T1 construct: full-length wild type 1-1495; TEV-cleavable N-terminal His6-GST tag, C-terminal twin Strep tag; E. coli KRX
T1 sequence (Q5VYS8 1-1495): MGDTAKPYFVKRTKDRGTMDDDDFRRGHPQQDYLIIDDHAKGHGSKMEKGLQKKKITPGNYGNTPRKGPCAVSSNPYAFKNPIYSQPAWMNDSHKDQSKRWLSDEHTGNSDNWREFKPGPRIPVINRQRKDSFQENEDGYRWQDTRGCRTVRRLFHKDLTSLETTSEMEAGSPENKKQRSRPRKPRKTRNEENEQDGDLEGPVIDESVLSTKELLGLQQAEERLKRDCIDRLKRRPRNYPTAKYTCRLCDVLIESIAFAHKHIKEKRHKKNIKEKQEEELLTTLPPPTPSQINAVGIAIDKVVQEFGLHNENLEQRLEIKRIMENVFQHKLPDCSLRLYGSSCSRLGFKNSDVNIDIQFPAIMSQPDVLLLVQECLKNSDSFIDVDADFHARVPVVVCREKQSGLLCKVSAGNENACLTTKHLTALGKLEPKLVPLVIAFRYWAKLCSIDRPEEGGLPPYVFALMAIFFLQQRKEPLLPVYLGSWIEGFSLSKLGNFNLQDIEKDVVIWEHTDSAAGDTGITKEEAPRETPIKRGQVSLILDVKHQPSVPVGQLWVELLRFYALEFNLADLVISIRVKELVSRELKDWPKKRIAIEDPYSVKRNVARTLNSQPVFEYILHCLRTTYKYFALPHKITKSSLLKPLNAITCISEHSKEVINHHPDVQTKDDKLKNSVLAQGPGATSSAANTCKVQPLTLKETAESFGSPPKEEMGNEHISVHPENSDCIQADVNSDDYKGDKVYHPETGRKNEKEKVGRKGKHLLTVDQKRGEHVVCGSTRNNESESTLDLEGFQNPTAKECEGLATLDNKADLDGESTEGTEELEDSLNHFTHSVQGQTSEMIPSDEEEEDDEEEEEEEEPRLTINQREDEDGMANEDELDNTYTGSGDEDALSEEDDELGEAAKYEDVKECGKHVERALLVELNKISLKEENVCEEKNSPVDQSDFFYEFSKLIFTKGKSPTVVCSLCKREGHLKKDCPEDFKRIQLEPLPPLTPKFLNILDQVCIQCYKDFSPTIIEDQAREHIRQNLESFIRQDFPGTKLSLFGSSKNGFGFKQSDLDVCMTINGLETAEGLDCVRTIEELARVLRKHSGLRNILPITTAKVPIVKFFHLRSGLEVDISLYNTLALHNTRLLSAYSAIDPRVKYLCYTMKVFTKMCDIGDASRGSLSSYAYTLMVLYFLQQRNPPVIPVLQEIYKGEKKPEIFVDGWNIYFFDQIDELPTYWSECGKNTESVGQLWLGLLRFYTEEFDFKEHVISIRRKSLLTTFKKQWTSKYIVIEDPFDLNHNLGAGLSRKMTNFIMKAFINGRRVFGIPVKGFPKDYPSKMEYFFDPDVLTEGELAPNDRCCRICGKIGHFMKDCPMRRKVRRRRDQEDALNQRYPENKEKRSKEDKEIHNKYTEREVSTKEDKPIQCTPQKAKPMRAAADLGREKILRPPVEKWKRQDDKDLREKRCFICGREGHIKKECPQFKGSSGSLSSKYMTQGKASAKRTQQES
Put plainly: in vitro uridylation of labelled pre-let-7g, denaturing PAGE. Format: biochemical. The following applies: pre-let-7g RNA co-substrate, no LIN28A, 0.5 mM UTP, 5 mM MgCl2, 50 µM ZnCl2, pH 7.8, 37 °C.

The target of data set [2] is T1, TUT7. Put plainly: cryo-EM structure, […] Å. Type of data set: binding. The conditions noted are these: pre-let-7g, 2 mM CaCl2, 0.5 mM UTPαS, pH 7.8; catalytic pocket of the CM (active site).
The target of the next data set is T2, TUT7 (ZCCHC6) (Homo sapiens, UniProt Q5VYS8 1-1495).
T2 sequence: T1 sequence (Q5VYS8 1-1495)
Put plainly: cryo-EM; UTPalphaS; binary complex, 3.55 A; EMSA: 20 mM HEPES pH 7.8, 100 mM NaCl, 2 mM CaCl2, 50 uM ZnCl2, 5% glycerol, 5 mM DTT, 0.5 mM UTP, RNase inhibitor, on ice 30 min; 0.1 uM RNA, 0.2 uM TUT, 0.3 uM LIN28A; native gel in 1x TBE at 4 C. The following applies: protein: recombinant; tags: N-term His6-GST (TEV cleavable), C-term twin-Strep; hairpin, 1 nt 3' overhang. On the technique in general: A gel shift assay detects complexes by their altered migration in electrophoresis.

Data set [3] has as its target T3, human terminal uridylyltransferase 7 (TUT7), full length (1-1495) (human, UniProt Q5VYS8 1-1495).
T3 construct: TUT7 (ZCCHC6), human, residues 1-1495, wild type, synthesised gene; The His6-GST tag is cleavable by tobacco etch virus protease; Unmodified (not PEGylated) enzyme was used for the complexes; also called ZCCHC6; source: E. coli KRX, purified (Strep-XT 4Flow beads, Heparin column, size-exclusion chromatography)
T3 sequence (looked up): T1 sequence (Q5VYS8 1-1495)
Put plainly: cryo-EM structure; ternary complexes of TUT7 or TUT4 with pre-let-7g RNA and LIN28A mixed at a molar ratio of 1:1.5:2, overnight on ice with 0.5 mM UTPalphaS, 2 mM DTT, 2 mM CaCl2, then SEC in 20 mM HEPES pH 7.8, 100 mM NaCl. The following applies: both partners purified.

Consider `O=c1ccn([C@@H]2O[C@H](COP(=O)(O)OP(=O)(O)OP(=O)(O)O)[C@@H](O)[C@H]2O)c(=O)[nH]1` [UTP], for which the “in vitro uridylation of labelled pre-let-7g, denaturing PAGE” value on TUT7 [1] was “In vitro activity assays for TUT7 showing mono-uridylation activity in the absence of LIN28A”.

For `O=c1ccn([C@@H]2O[C@H](COP(O)(=S)OP(=O)(O)OP(=O)(O)O)[C@@H](O)[C@H]2O)c(=O)[nH]1` (stereo partly shown) [UTPαS], the “cryo-EM structure, 3.55 Å” value at TUT7 [2] is “UTPαS bound and stabilized by the critical residues; F1045, S1047, Q1124, L1126, N1130”.

B1: pre-let-7g (structured_RNA)
RNA: UGAGGUAGUAGUUUGUACAGUUUGAGGGUCUAUGAUACCACCCGGUACAGGAGAUAACUGUACAGGCCACUGCCUUGC
For the molecule B1, the binding result with TUT7 (ZCCHC6) is recorded as “binds”.

B2: human LIN28A (natural protein)
chain: MGSVSNQQFAGGCAKAAEEAPEEAPEDAARAADEPQLLHGAGICKWFNVRMGFGFLSMTARAGVALDPPVDVFVHQSKLHMEGFRSLKEGEAVEFTFKKSAKGLESIRVTGPGGVFCIGSERRPKGKSMQKRRSKGDRCYNCGGLDHHAKECKLPPQPKKCHFCQSISHMVASCPLKAQQGPSAQGKPTYFREEEEEIHSPTLLPEAQN
notes: LIN28A, human, synthesised gene; Expressed as an N-terminal His6-GST fusion; removal of the tag is not described; The phrase 'full-length wild-type human TUT7 and human LIN28A' may or may not mean that LIN28A was full length; Only the ZK domain is resolved in the maps
Take B2: the binding result in data set [3] is “binds”.

For the origin of these results see PMC11402785, “Structural basis for activity switching in polymerases determining the fate of let-7 pre-miRNAs” (Nature Structural & Molecular Biology, 2024).
